# Like-named read-outs stand apart in the source and are kept apart here.
# How the values were obtained:
# [1] = biological target: T1, human histamine H4 receptor (Homo sapiens, UniProt Q9H3N8); assay: Evaluation of H4 Receptor Function ([35S]GTPγS binding); type: biochemical
# T1 construct: purchased PerkinElmer Inc; host or cells: CHO-K1
# Description: The antagonistic effect was evaluated by the method described below. Membrane preparation from recombinant CHO-K1 cell expressing the human histamine H4 receptor (PerkinElmer Inc.), 10 μM GDP, 0.1 μM histamine, and the compounds dissolved in DMSO were reacted at 30° C. for 20 minutes in a buffering solution containing 20 mM HEPES, pH 7.4, 100 mM NaCl, 10 mM MgCl2, 1 mM DTT, and 1 mM EDTA on an assay plate. Thereafter, SPA beads (Amersham plc) were added, followed by incubation for 60 minutes, and further 0.3 nM [^35S]GTPγS (PerkinElmer Inc.) was added, followed by incubation for 30 minutes.
# [2] = biological target: T1, human histamine H4 receptor; assay: Evaluation of Human H4 Receptor Affinity ([3H]histamine binding); details: inhibition constant Ki, CHO-K1 membrane preparation
# How it was run: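 Radioligand displacement: compound competes with 8.2 nM [3H]histamine at recombinant human H4 receptor in CHO-K1 membranes (Tris-HCl 50 mM pH 7.4, EDTA 1.25 mM; 25 °C, 90 min), with filter-bound radioactivity counted. IC50 was converted to Ki via Cheng-Prusoff (Kd 5.7 nM); 1.0 μM histamine set nonspecific binding.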
# [3] = biological target: T2, human histamine H1 receptor (Homo sapiens, UniProt P35367); assay: Evaluation of Human H1 Receptor Affinity ([3H]pyrilamine binding); set-up: purchased PerkinElmer Inc; host or cells: CHO-K1; details: inhibition constant Ki, CHO-K1 membrane preparation
# How it was run: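 Ki values are Cheng-Prusoff conversions of IC50 (Kd 1.1 nM) from radioligand displacement of 1.2 nM [3H]pyrilamine, with 1.0 μM pyrilamine defining nonspecific binding.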
# [4] = biological target: T2, human histamine H1 receptor; assay: Evaluation of Human H1 Receptor Function (GeneBLAzer H1-NFAT-bla HEK 293T cells); type: cell-based; details: histamine 30 nM, read-out: Evaluation of H1 Receptor Function (IC50 value, antagonistic effect)
# Description: Test Example 3: Evaluation of Human H1 Receptor Function
# The antagonistic effect was evaluated by the method described below. GeneBLAzer® H1-NFAT-bla HEK 293T-cells (Invitrogen Corporation, recombinant cells expressing the human histamine H1 receptor) were incubated at 37° C. for 30 minutes in the presence of the test compounds dissolved in DMSO in a high glucose Dulbecco's Modified Eagle Medium (GlutaMAX, containing 10% fetal bovine serum, 100 μM nonessential amino acids, 25 mM HEPES, 100 U/mL penicillin, and 100 μg/mL streptomycin), and histamine was added such that the final concentration became 30 nM, followed by further incubation for 4.5 hours. Then, a mixture of LiveBLAzer™ FRET-B/G Loading Kit (Invitrogen Corporation) and Solution D (Invitrogen Corporation) was added, followed by leaving to stand at room temperature for 2 hours under shaded conditions. Thereafter, the fluorescence intensity was measured under two conditions of 400 nm/460 nm and 400 nm/535 nm (excitation light/fluorescence) by using a multilabel counter (EnVision: PerkinElmer Inc.). The 50% inhibitory concentration (IC50 value) was calculated in accordance with (measured value−blank measured value at 400 nm/460 nm)/(measured value−blank measured value at 400 nm/535 nm) of each test sample.
# [5] = [35S]GTPγS binding, CHO-K1 membrane, 0.1 μM histamine, read-out: Evaluation of H4 Receptor Function (IC50 value, antagonistic effect)
# [6] = read-out: Evaluation of H4 Receptor Affinity
# T2 sequence (P35367 whole entry): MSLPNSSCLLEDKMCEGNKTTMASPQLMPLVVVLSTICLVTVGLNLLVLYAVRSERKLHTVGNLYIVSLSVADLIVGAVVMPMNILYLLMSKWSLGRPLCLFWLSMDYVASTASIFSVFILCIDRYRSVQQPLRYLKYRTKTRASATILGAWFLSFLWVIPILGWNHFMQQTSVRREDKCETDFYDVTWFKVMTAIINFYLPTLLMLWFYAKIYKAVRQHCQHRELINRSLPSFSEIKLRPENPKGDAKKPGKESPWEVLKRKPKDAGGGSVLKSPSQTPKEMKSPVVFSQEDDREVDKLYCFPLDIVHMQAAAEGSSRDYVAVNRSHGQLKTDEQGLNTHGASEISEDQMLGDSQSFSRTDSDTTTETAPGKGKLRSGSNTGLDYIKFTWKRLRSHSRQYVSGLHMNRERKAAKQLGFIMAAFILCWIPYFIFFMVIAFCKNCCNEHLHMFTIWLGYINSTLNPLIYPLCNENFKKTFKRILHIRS
SMILES,"IC50 [1, 5] [µM]","Ki [2, 6] [µM]",Ki [3] [µM],IC50 [4] [µM],IC50 [1] [µM],Ki ([2]; Evaluation of H4 Receptor Affinity) [µM]
"CN(C)[C@H]1CCN(c2nc(N)nc3c2CCc2cc(OCc4ccccc4)ccc2-3)C1 [Example 102, (S)-8-(benzyloxy)-4-(3-(dimethylamino)pyrrolidin-1-yl)-5,6-dihydrobenzo[h]quinazolin-2-amine]",< 0.2,< 0.1,0.1 to 0.5,0.2 to 2,–,–
"Nc1nc2c(c(N3CCN(CCOCc4cccc(C(=O)O)c4)CC3)n1)CCc1cc(OCc3ccc(Cl)cc3)ccc1-2 [15(b), 3-((2-(4-(2-amino-8-((4-chlorobenzyl)oxy)-5,6-dihydrobenzo[h]quinazolin-4-yl)piperazin-1-yl)ethoxy)methyl)benzoic acid]",0.2 to 2,< 0.1,< 0.1,< 0.2,–,–
"Nc1nc2c(c(N3CCN(CCO[C@@H]4CO[C@@H](C(=O)O)C4)CC3)n1)CCc1cc(OCc3ccc(OC(F)(F)F)cc3)ccc1-2 [Example 37, (2R,4S)-4-(2-(4-(2-amino-8-((4-(trifluoromethoxy)benzyl)oxy)-5,6-dihydrobenzo[h]quinazolin-4-yl)piperazin-1-yl)ethoxy)tetrahydrofuran-2-carboxylic acid]",< 0.2,< 0.1,< 0.1,< 0.2,–,–
"CN1CCN(c2nc(N)nc3c2CCc2cc(NS(=O)(=O)c4ccc(Cl)cc4)ccc2-3)CC1 [Example 42, N-(2-amino-4-(4-methylpiperazin-1-yl)-5,6-dihydrobenzo[h]quinazolin-8-yl)-4-chlorobenzenesulfonamide]",0.2 to 2,< 0.1,< 0.1,< 0.2,–,–
"CN1CCN(c2nc(N)nc3c2Cc2ccc(OCc4ccccc4)cc2-3)CC1 [Example 201, 8-(benzyloxy)-4-(4-methylpiperazin-1-yl)-5H-indeno[1,2-d]pyrimidin-2-amine]",< 0.2,< 0.1,< 0.1,< 0.2,–,–

# Continued, values first:
"IC50 [1, 5] [µM]","Ki [2, 6] [µM]",Ki [3] [µM],IC50 [4] [µM],IC50 [1] [µM],Ki ([2]; Evaluation of H4 Receptor Affinity) [µM],SMILES
0.2 to 2,0.1 to 0.5,< 0.1,< 0.2,–,–,"Nc1nc2c(c(N3CCN(CCOCc4cc(C(=O)O)ccc4F)CC3)n1)CCc1cc(OCc3ccc(Cl)cc3)ccc1-2 [129(b), 3-((2-(4-(2-amino-8-((4-chlorobenzyl)oxy)-5,6-dihydrobenzo[h]quinazolin-4-yl)piperazin-1-yl)ethoxy)methyl)-4-fluorobenzoic acid]"
–,–,< 0.1,< 0.2,< 0.2,< 0.1,"CN1CCN(c2nc(N)nc3c2CCc2cc(OCc4ccccc4)ccc2-3)CC1 [Example 2, 8-(benzyloxy)-4-(4-methylpiperazin-1-yl)-5,6-dihydrobenzo[h]quinazolin-2-amine]"
< 0.2,< 0.1,< 0.1,< 0.2,–,–,"NC(=O)N1CC(COCCN2CCN(c3nc(N)nc4c3CCc3cc(OCc5ccc(OC(F)(F)F)cc5)ccc3-4)CC2)C1 [Example 39, 3-((2-(4-(2-amino-8-((4-(trifluoromethoxy)benzyl)oxy)-5,6-dihydrobenzo[h]quinazolin-4-yl)piperazin-1-yl)ethoxy)methyl)azetidine-1-carboxamide]"
0.2 to 2,< 0.1,< 0.1,< 0.2,–,–,"Nc1nc2c(c(N3CCN(CCOCCOCC(=O)O)CC3)n1)CCc1cc(OCc3ccc(Cl)cc3)ccc1-2 [11(b), 2-(2-(2-(4-(2-amino-8-((4-chlorobenzyl)oxy)-5,6-dihydrobenzo[h]quinazolin-4-yl)piperazin-1-yl)ethoxy)ethoxy)acetic Acid]"
0.2 to 2,< 0.1,< 0.1,< 0.2,–,–,"Nc1nc2c(c(N3CCN(CCOCCOCc4nn[nH]n4)CC3)n1)CCc1cc(OCc3ccc(Cl)cc3)ccc1-2 [Example 21, 4-(4-(2-(2-((tetrazol-5-yl)methoxy)ethoxy)ethyl)piperazin-1-yl)-8-((4-chlorobenzyl)oxy)-5,6-dihydrobenzo[h]quinazolin-2-amine]"
< 0.2,< 0.1,< 0.1,< 0.2,–,–,"CN1CCN(c2nc(N)nc3c2CCc2cc(OCc4ccc(F)cc4)ccc2-3)CC1 [Example 196, 8-((4-fluorobenzyl)oxy)-4-(4-methylpiperazin-1-yl)-5,6-dihydrobenzo[h]quinazolin-2-amine]"

# — US20190047966A1, “NOVEL COMPOUND AND PHARMACOLOGICALLY ACCEPTABLE SALT THEREOF” (MEIJI SEIKA PHARMA CO., LTD., priority 2016, published 2019)
